From ChEMBL document CHEMBL4622954, “Structural manipulation of aporphines via C10 nitrogenation leads to the identification of new 5-HT7AR ligands” (Bioorg Med Chem, 2020)
Where a name gives a salt, the structure may show the parent alone.

Legend:
[1] = biological target: 5-hydroxytryptamine receptor 2A (Homo sapiens, UniProt P28223);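 also: [3H]-Ketanserin displacement from the 5-HT2A receptor after 90 min incubation, with bound label read by MicroBeta counting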
Description: Displacement of [3H]-Ketanserin from 5-HT2A receptor (unknown origin) incubated for 90 mins by microbeta counting method

[2] = biological target: T1, 5-hydroxytryptamine receptor 6 (Homo sapiens, UniProt P50406); assay: Displacement of [3H]-LSD from human 5-HT6 receptor expresssed in stable HEK cell membrane incubated for 90 mins by microbeta counting method
[3] = biological target: T1, 5-hydroxytryptamine receptor 6
[4] = biological target: T2, 5-hydroxytryptamine receptor 1A (Homo sapiens, UniProt P08908); assay: biochemical
T2 sequence (P08908 whole entry): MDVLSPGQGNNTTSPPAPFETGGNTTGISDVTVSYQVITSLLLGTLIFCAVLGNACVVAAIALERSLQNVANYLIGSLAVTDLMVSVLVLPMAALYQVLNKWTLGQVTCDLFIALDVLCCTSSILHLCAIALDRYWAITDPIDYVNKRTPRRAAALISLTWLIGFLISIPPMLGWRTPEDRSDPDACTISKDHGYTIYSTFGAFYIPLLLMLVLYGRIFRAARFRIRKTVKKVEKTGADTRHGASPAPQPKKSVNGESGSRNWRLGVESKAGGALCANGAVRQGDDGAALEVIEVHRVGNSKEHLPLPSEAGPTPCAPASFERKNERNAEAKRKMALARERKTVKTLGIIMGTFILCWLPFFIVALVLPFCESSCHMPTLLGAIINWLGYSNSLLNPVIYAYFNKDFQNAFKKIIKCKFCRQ
Description: (§2) Displacement of [3H]-WAY100635 from human 5-HT1A receptor expresssed in stable CHO cell membrane incubated for 90 mins by microbeta counting method

[5] = biological target: T3, 5-hydroxytryptamine receptor 7 (Homo sapiens, UniProt P34969); assay: biochemical
Description: (§3) Displacement of [3H]-LSD from human 5-HT7A receptor expresssed in stable HEK cell membrane incubated for 90 mins by microbeta counting method

[6] = biological target: T1, 5-hydroxytryptamine receptor 6; assay: biochemical
D(2) dopamine receptor [7] = biological target: T4, D(2) dopamine receptor (Homo sapiens, UniProt P14416); settings: fibroblast
Homo sapiens = species: Homo sapiens; assay: Selectivity index, ratio of Ki for human 5-HT7A receptor expressed in stable HEK cell membrane to Ki for human 5-HT1A receptor expresssed in stable CHO cell membrane incubated for 90 mins by microbeta counting method; assay type: cell-based
D(1A) dopamine receptor [8] = biological target: T5, D(1A) dopamine receptor (Homo sapiens, UniProt P21728); assay: Displacement of [3H]-SCH23390 from human dopamine D1 receptor expressed in HEKT cells incubated for 90 mins by microbeta counting method
[9] = biological target: T6, D(4) dopamine receptor (Homo sapiens) (UniProt P21917); assay: (§1) Displacement of [3H]-N-Methylspiperone from human dopamine D4 receptor expressed in stable HEK cells incubated for 90 mins by microbeta counting method; assay type: cell-based
T6 sequence (whole entry): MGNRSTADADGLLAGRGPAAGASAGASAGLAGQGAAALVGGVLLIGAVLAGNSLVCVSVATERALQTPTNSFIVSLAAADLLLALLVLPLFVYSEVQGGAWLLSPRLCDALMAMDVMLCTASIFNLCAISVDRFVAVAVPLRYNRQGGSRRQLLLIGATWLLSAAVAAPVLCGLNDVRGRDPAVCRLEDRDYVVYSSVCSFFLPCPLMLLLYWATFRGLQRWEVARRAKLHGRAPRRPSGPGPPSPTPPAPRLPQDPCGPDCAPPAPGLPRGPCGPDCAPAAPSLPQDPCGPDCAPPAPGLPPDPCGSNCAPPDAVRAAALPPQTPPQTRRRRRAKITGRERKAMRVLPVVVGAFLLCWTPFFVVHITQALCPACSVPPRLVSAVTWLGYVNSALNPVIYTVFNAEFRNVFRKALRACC

D(4) dopamine receptor = biological target: T7, D(4) dopamine receptor (Homo sapiens, UniProt P21917); assay: as §1; assay type: cell-based
T7 sequence (P21917 whole entry): T6 sequence (whole entry)

D(3) dopamine receptor = D(3) dopamine receptor (Homo sapiens, UniProt P35462)
Description: Displacement of [3H]-N-Methylspiperone from dopamine D3 receptor (unknown origin) incubated for 90 mins by microbeta counting method

D(1B) dopamine receptor = D(1B) dopamine receptor (Homo sapiens, UniProt P21918); assay: Binding affinity to human dopamine D5 receptor expressed in HEKT cells incubated for 90 mins by microbeta counting method; assay type: cell-based
D(1A) dopamine receptor [10] = biological target: T5, D(1A) dopamine receptor
D(2) dopamine receptor [11] = biological target: T4, D(2) dopamine receptor; assay: Displacement of [3H]-N-Methylspiperone from human dopamine D2 receptor expressed in stable fibroblast cells incubated for 90 mins by microbeta counting method
[12] = biological target: T8, 5-hydroxytryptamine receptor 1A (Homo sapiens) (UniProt P08908); settings: CHO
T8 sequence (whole entry): T2 sequence (P08908 whole entry)
Description: as §2

[13] = biological target: T2, 5-hydroxytryptamine receptor 1A; settings: cho
Description: as §2

[14] = biological target: T3, 5-hydroxytryptamine receptor 7
Description: as §3

[15] = biological target: T3, 5-hydroxytryptamine receptor 7; remark: listed apart in the source
Description: as §3

D(2) dopamine receptor [16] = biological target: T4, D(2) dopamine receptor; assay: biochemical
D(1A) dopamine receptor [17] = biological target: T5, D(1A) dopamine receptor; assay: biochemical
[18] = biological target: T3, 5-hydroxytryptamine receptor 7; assay: Antagonist activity at human recombinant 5-HT7 receptor expressed in CHOK1 Hunter cell preincubated for 30 mins followed by incubation with agonist for 30 to 60 mins by hit-hunter cAMP assay based chemiluminescence analysis; assay type: functional, CHO-K1

Sequence of 5-hydroxytryptamine receptor 2A (P28223 whole entry): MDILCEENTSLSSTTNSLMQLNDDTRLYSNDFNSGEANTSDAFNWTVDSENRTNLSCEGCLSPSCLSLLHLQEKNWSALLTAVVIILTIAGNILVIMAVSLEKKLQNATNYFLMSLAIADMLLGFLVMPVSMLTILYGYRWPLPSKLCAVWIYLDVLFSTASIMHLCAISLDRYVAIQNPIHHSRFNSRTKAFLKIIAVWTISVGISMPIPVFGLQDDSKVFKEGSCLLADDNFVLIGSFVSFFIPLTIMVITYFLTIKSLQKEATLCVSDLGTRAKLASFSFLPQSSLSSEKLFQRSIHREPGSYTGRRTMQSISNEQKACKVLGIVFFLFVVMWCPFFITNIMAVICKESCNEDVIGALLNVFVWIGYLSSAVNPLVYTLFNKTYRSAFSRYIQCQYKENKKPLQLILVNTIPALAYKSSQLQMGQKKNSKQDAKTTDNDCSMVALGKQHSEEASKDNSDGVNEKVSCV
T3 sequence (P34969 whole entry): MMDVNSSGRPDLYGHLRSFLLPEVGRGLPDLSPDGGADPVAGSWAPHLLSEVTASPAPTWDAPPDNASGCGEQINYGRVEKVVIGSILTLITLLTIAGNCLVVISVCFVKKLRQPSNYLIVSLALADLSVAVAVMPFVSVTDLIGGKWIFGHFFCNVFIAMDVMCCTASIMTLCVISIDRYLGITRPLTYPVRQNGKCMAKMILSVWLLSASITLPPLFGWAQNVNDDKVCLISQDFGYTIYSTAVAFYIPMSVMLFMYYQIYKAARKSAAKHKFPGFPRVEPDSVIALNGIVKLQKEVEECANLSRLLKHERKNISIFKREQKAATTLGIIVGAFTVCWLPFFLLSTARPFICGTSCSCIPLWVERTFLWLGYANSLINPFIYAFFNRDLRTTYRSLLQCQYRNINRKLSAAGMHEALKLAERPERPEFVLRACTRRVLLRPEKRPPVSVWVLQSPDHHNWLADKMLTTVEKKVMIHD
Sequence of D(1B) dopamine receptor (P21918 whole entry): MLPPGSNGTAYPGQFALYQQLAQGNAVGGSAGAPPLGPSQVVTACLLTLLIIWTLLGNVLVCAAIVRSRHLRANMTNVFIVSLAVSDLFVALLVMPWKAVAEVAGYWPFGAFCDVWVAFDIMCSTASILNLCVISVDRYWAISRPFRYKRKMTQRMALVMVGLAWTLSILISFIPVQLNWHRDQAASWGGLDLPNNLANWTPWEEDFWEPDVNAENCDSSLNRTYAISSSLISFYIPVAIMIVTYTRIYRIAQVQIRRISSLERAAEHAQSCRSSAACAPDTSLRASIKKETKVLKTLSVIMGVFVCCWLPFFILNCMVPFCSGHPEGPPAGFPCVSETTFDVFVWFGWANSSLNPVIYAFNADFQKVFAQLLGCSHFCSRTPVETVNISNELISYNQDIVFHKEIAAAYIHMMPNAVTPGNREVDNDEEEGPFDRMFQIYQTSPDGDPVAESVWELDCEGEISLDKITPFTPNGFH
Sequence of D(3) dopamine receptor (P35462 whole entry): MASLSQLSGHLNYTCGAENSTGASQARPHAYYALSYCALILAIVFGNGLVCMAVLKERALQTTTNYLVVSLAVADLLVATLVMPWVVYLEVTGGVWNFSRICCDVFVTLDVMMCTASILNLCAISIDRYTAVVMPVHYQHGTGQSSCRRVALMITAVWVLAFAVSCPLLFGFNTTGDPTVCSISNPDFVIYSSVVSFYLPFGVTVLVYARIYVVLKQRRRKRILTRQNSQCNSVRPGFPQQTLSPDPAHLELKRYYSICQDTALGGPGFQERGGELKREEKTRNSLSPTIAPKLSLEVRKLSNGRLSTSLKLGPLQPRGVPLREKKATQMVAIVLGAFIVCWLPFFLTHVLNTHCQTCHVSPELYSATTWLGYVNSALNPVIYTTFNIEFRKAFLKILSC
T5 sequence (P21728 whole entry): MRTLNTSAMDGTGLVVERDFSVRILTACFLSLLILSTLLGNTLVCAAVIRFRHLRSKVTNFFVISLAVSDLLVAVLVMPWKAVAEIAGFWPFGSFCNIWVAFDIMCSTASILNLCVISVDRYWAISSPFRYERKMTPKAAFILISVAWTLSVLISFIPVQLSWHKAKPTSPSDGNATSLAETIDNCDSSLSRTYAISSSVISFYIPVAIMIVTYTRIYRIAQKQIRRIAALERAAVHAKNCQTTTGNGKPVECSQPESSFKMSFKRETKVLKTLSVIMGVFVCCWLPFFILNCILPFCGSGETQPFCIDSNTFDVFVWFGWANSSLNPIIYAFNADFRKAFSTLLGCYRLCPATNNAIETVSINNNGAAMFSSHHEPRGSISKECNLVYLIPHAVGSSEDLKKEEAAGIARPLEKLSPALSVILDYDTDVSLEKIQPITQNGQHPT
T1 sequence (P50406 whole entry): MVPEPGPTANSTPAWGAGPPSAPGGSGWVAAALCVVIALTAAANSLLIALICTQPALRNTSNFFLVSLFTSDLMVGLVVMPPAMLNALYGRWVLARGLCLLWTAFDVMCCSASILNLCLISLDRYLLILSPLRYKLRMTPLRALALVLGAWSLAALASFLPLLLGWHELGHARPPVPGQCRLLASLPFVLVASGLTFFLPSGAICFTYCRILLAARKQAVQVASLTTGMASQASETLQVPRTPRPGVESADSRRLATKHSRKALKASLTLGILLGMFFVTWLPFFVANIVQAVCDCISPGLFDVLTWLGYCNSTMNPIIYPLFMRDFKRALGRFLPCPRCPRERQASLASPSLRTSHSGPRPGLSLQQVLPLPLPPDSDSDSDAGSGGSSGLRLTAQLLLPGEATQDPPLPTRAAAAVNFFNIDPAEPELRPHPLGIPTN
T4 sequence (P14416 whole entry): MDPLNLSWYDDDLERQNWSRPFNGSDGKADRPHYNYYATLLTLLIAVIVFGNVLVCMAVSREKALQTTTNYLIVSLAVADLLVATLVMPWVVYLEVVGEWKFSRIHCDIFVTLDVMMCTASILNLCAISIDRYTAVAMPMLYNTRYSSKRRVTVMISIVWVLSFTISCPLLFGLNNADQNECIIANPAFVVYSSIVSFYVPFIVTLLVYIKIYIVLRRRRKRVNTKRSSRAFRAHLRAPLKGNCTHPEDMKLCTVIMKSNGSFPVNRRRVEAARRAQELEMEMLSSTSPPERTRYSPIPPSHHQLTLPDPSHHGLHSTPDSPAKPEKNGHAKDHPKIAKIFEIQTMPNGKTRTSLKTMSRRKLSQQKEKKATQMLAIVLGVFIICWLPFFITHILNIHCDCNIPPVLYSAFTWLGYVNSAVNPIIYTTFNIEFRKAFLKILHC

SMILES | Ki [1] | inhibition [2] [%] | Ki [3] | Ki [4] [nM] | Ki [5] [nM] | Ki ([1]; read-out: Ki) [nM] | Ki [6] [nM] | also measured
CCCN1CCc2cccc3c2C1Cc1ccc(N)cc1-3 (stereo not given) | Not Active | < 50 | Not Active | 30 | 63 |  |  | 
C#CCOc1c(OC)cc2c3c1-c1cc(NS(C)(=O)=O)ccc1CC3N(C)CC2 (racemic) |  |  |  | 511 | 31 | 1330 | 218 | 
CCCN1CCc2cccc3c2C1Cc1cc2sc(N)nc2cc1-3 (racemic) | Not Active | < 50 | Not Active | 7.5 | 132 |  |  | Ki (D(2) dopamine receptor [7]): Not Active; Ratio Ki (Homo sapiens): 17; inhibition (D(1A) dopamine receptor [8]): < 50%; inhibition [9]: < 50%; Ki (D(4) dopamine receptor): Not Active; Ki (D(3) dopamine receptor): 2110 nM; Ki (D(1B) dopamine receptor): Not Active; inhibition (D(1B) dopamine receptor): < 50%; Ki (D(1A) dopamine receptor [10]): Not Active; inhibition (D(2) dopamine receptor [11]): < 50%
COc1cc2c3c(c1OCC1CC1)-c1cc(NC(C)=O)ccc1CC3N(C)CC2 (racemic) |  |  |  | 1540 | 636 | 974 | 1500 | 
CN1CCc2cccc3c2C1Cc1cc2sc(N)nc2cc1-3 (racemic) | Not Active |  | Not Active | 23 |  |  |  | Ki (D(2) dopamine receptor [7]): Not Active; Ki (D(4) dopamine receptor): Not Active; Ki (D(1B) dopamine receptor): Not Active; Ki (D(1A) dopamine receptor [10]): Not Active
CCCN1CCc2cccc3c2C1Cc1ccc(N(C)C)cc1-3 (racemic) | Not Active | < 50 | Not Active | 256 | 984 |  |  | 
COc1cc2c3c(c1OCC1CC1)-c1cc(NC(N)=O)ccc1CC3N(C)CC2 (racemic) |  |  |  | 1280 | 353 | 857 | 527 | 
COc1cc2c3c(c1OC)-c1cc(NC(N)=O)ccc1CC3N(C)CC2 (racemic) | Not Active |  |  |  | 289 |  | 415 | inhibition [12]: < 50%; Ki [13]: Not Active
CCCC(=O)Nc1ccc2c(c1)-c1cccc3c1C(C2)N(CCC)CC3 (racemic) | Not Active | < 50 | Not Active | 15 | 311 |  |  | 
CN1CCc2cccc3c2C1Cc1ccc(NC(N)=O)cc1-3 (racemic) | Not Active |  | Not Active | 49 |  |  |  | Ki (D(2) dopamine receptor [7]): Not Active; Ki (D(4) dopamine receptor): Not Active; Ki (D(3) dopamine receptor): 2460 nM; Ki (D(1B) dopamine receptor): Not Active; Ki (D(1A) dopamine receptor [10]): Not Active
C#CCOc1c(OC)cc2c3c1-c1cc(NC(=O)CCC)ccc1CC3N(C)CC2 (racemic) |  |  |  | 661 | 455 | 1040 | 354 | 
CN(C)c1ccc2c(c1)-c1cccc3c1C(C2)N(C)CC3 (racemic) |  |  |  | 458 | 17 | 566 | 1590 | 
CCCN1CCc2cccc3c2C1Cc1ccc(NC(C)=O)cc1-3 (racemic) | Not Active | < 50 | Not Active | 21 |  |  |  | Ki [14]: Not Active; inhibition [15]: < 50%
COc1cc2c3c(c1OCC1CC1)-c1cc(N)ccc1CC3N(C)CC2 (racemic) |  |  |  |  | 104 | 110 | 132 | inhibition [12]: < 50%; Ki [13]: Not Active
CCCN1CCc2cccc3c2C1Cc1ccc(NC(N)=O)cc1-3 (racemic) | Not Active | < 50 | Not Active | 236 |  |  |  | Ki [14]: Not Active; inhibition [15]: < 50%
C=CCOc1c(OC)cc2c3c1-c1cc(NC(=O)CCC)ccc1CC3N(C)CC2 (racemic) |  |  |  | 463 | 188 | 443 | 198 | 
COc1cc2c3c(c1OCC1CC1)-c1cc(NS(C)(=O)=O)ccc1CC3N(C)CC2 (racemic) |  |  |  | 385 | 114 | 433 | 505 | 
C#CCOc1c(OC)cc2c3c1-c1cc(NC(N)=O)ccc1CC3N(C)CC2 (racemic) | Not Active |  |  | 911 | 123 |  | 410 | 
COc1cc2c3c(c1OC)-c1cc(NS(C)(=O)=O)ccc1CC3N(C)CC2 (racemic) | Not Active |  |  |  | 89 |  | 86 | inhibition [12]: < 50%; Ki [13]: Not Active
CN1CCc2cccc3c2C1Cc1ccc2nc(N)sc2c1-3 (racemic) |  | < 50 | Not Active | 187 | 9.9 | 1040 |  | Ki (D(2) dopamine receptor [16]): 1740 nM; Ki (D(1A) dopamine receptor [17]): 1150 nM; Ki (D(4) dopamine receptor; read-out: Ki): 481 nM; Ki (D(3) dopamine receptor): 381 nM; Ki (D(1B) dopamine receptor): Not Active; inhibition (D(1B) dopamine receptor): < 50%
CCCC(=O)Nc1ccc2c(c1)-c1c(OCC3CC3)c(OC)cc3c1C(C2)N(C)CC3 (racemic) |  |  |  | 429 | 395 | 665 | 322 | 
CCCN1CCc2cccc3c2C1Cc1ccc(NS(C)(=O)=O)cc1-3 (racemic) | Not Active | < 50 | Not Active | 23 | 199 |  |  | 
C=CCOc1c(OC)cc2c3c1-c1cc(NS(C)(=O)=O)ccc1CC3N(C)CC2 (racemic) |  |  |  | 403 | 42 | 668 | 590 | 
COc1cc2c3c(c1OC)-c1cc(N(C)C)ccc1CC3N(C)CC2 (racemic) |  |  |  | 1570 | 73 | 295 | 127 | 
C=CCOc1c(OC)cc2c3c1-c1cc(N(C)C)ccc1CC3N(C)CC2 (racemic) |  |  |  |  | 309 | 318 | 102 | inhibition [12]: < 50%; Ki [13]: Not Active
COc1cc2c3c(c1OCC1CC1)-c1cc(N(C)C)ccc1CC3N(C)CC2 (racemic) |  |  |  | 1440 | 752 | 878 | 329 | 
CN1CCc2cccc3c2C1Cc1ccc(NS(C)(=O)=O)cc1-3 (racemic) | Not Active | < 50 | Not Active | 133 | 27 |  |  | 
CCCN1CCc2cccc3c2C1Cc1ccc2nc(N)sc2c1-3 (racemic) | Not Active | < 50 | Not Active | 93 |  |  |  | 
CCCC(=O)Nc1ccc2c(c1)-c1c(OC)c(OC)cc3c1C(C2)N(C)CC3 (racemic) |  |  |  | 469 | 67 | 417 | 356 | 
O=C(CCCN1CCC2(CC1)C(=O)NCN2c1ccccc1)c1ccc(F)cc1 [SPIPERONE HYDROCHLORIDE] |  |  |  |  |  |  |  | IC50 [18]: 310 nM
